Values quoted from earlier work in paper PMC3082041 (Cancer Chemotherapy and Pharmacology, 2010).

Test system: patients
Conditions: treated with Imatinib; cited from earlier work

## Cc1ccc(NC(=O)c2ccc(CN3CCN(C)CC3)cc2)cc1Nc1nccc(-c2cccnc2)n1 [Imatinib]
  patients with grade 3/4 edema: 7%
